In test [1] the target is ΔCRD Nluc-SMO (Mus musculus, UniProt P56726, D477G/E522K). Nature of the test: NanoBRET saturation binding, live cells. The format is cell-based.
The target of test [2] is Nluc-SMO (Mus musculus, UniProt P56726, D477G/E522K). Nature of the test: NanoBRET saturation binding, live cells. Type of test: cell-based.

In general, Kd refers to a measure of binding affinity in units of concentration.

Each structure is given as a SMILES string.

Chain of ΔCRD Nluc-SMO (P56726 185-793 D477G/E522K): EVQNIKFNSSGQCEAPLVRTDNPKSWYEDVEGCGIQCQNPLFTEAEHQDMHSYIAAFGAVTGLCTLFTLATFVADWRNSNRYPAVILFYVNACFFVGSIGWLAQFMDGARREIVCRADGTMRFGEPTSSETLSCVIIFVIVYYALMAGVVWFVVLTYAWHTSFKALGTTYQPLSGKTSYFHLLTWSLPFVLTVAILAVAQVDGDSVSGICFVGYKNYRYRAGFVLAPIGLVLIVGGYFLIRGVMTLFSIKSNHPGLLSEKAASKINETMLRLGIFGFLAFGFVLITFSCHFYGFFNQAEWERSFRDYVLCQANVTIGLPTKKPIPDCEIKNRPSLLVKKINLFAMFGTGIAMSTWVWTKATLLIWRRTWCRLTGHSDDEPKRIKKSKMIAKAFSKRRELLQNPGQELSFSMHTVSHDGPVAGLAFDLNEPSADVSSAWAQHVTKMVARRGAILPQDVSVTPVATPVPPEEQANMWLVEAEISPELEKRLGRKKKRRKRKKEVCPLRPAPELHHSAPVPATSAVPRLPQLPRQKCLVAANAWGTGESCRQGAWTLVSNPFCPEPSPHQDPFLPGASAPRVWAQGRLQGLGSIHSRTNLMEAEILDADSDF
Chain of Nluc-SMO (P56726 33-793 D477G/E522K): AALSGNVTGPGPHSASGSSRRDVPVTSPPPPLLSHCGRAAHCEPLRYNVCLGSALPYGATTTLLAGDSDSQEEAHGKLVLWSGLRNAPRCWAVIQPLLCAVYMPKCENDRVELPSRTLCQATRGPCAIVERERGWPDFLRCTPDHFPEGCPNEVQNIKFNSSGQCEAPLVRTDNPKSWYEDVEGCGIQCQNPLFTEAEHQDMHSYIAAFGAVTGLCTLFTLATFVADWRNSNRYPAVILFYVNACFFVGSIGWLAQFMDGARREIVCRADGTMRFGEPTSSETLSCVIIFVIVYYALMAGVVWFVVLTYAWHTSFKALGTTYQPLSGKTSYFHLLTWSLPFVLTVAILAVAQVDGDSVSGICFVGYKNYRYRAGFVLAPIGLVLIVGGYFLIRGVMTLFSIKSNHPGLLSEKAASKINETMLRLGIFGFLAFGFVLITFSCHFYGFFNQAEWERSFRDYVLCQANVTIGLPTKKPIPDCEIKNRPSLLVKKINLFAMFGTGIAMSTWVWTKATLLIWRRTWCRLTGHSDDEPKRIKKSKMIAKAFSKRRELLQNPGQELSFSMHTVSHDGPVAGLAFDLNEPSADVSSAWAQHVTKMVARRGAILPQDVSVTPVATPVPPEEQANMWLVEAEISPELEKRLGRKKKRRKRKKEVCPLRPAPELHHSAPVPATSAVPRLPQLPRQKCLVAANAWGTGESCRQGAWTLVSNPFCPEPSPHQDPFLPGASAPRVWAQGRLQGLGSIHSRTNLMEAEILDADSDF

On to `CC1=CC(C)=[N+]2C1=Cc1ccc(CCC(=O)NCCCCCC(=O)NCCN3C[C@@H](C)C[C@H]4O[C@]5(CC[C@@H]6C(=C5C)C[C@H]5[C@H]6CC=C6C[C@@H](O)CC[C@@]65C)[C@H](C)[C@@H]43)n1[B-]2(F)F` [BODIPY-cyclopamine], for which the equilibrium dissociation constant (Kd) in test [1] came out at 450 ± 38.7 nM; in test [2], 666 ± 122 nM.
